In US8513484B2, “Fish cancer model” (Temasek Life Sciences Laboratory Limited, priority 2005, dated 2013):

Columns and labels:
developing embryo = assay: Toxicity of drugs for the developing embryo; format: in vivo, zebrafish
Procedure: Drugs from BIOMOL® ICCB Known Bioactives Library Cat #2840 were used for drug tests. Drugs were diluted in standard fish water from the 5-mg/ml DMSO stock solutions. The injected embryos were sorted at 8 hours post fertilization (hpf) and the normally developing were selected for drug treatment. Ten to fifteen embryos per well were plated into 24-well microtiter plate and overlayed with 1.5 ml drug solution at 10 hpf. Embryos were incubated in the dark at 28° C. The results were observed every day until 5 days post fertilization (dpf).
To evaluate feasibility of the model for drug discovery, a mini-screening was performed using selected compounds from BIOMOL® ICCB Known Bioactives Library. The embryos injected with EGFP-zK-rasB(V12) construct were treated with various drugs in 24-well microtiter plates. The drugs were administered into the standard fish water starting at 10 hpf. Concentration of drugs was proposed based on data from a preliminary screening for developmental toxicity.

[1] = test system: EGFP-positive cells of embryos injected with EGFP-zK-rasB(V12) construct; assay: Drug tests on zebrafish embryos injected with EGFP-zK-rasB(V12) construct (neoplastic transformation of EGFP-positive cells); format: in vivo; conditions: for Effects: preliminary screen; for specific effect on the EGFP-positive cells: 1 μg/ml; for effect on the transformed cells: 3 μg/ml
Procedure: 5-10 pg of plasmid DNA were injected into zebrafish embryos at the 1-2-cell stage. The actual concentration of DNA was empirically adjusted to produce 50% embryo survival rate.
A SMZ1500 Stereoscopic Zoom Microscope (Nikon) equipped with the epi-fluorescence attachment and DXM1200F digital camera (Nikon) with original software was used for image analysis.

[2] = test system: E-cadherin-mediated cell adhesion system; conditions: by restoring E-cadherin-mediated cell adhesion system; Nam et al., 2002; cited from earlier work
[3] = 3 μg/ml in fish water from 10 hpf
[4] = 10 μg/ml in fish water from 10 hpf

COc1cccc(-c2cc(=O)c3ccccc3o2)c1N [PD98059]
concentration at which toxic effects on development become serious (developing embryo; zebrafish, in vivo): 10 ng/mL
growth of the EGFP-positive cells ([1]; 3 ng/ml): strongly impairs growth
shape and attachment of EGFP-positive cells ([1]; 3 ng/ml, by 72 hpf): smaller, maintain flat shape and remain attached to the embryo
Effects [1, 3]: preserves the epithelial

Cc1ccc(-c2nn(C(C)(C)C)c3ncnc(N)c23)cc1 [PP1]
toxicity for developing embryo (developing embryo; 1 μg/ml): tolerable
toxicity for developing embryo (developing embryo; 3 μg/ml): toxic
specific effect on the EGFP-positive cells [1]: considerably reduced
effect on the transformed cells [1]: maintained flat shape while continued to grow
Effects [1, 3]: Keeps cells flat and attached

Cc1ccc(NC(=O)c2cccc(N(C)C)c2)cc1NC(=O)c1ccc(O)cc1 [ZM336372]
Effects [1, 4]: NO

CC(C)(C)n1nc(-c2ccc(Cl)cc2)c2c(N)ncnc21 [PP2]
metastatic spread of cancer [2]: reduced metastatic spread of cancer
toxicity for developing embryo (developing embryo; 1 μg/ml): tolerable
toxicity for developing embryo (developing embryo; 3 μg/ml): toxic
specific effect on the EGFP-positive cells [1]: considerably reduced
effect on the transformed cells [1]: maintained flat shape while continued to grow
Effects [1, 3]: Keeps cells flat and attached

CC[C@H](C)C(=O)O[C@H]1C[C@@H](C)C=C2C=C[C@H](C)[C@H](CC[C@@H]3C[C@@H](O)CC(=O)O3)[C@H]21 [Lovastatin]
Effects ([1]; 0.003 μg/ml in fish water from 10 hpf): Cytotoxic, non-specific effects

CC[C@H](C)[C@@H](CO[C@@H](Cc1ccccc1)C(=O)N[C@@H](CCS(C)(=O)=O)C(=O)OC(C)C)NC[C@@H](N)CS [L-744,832]
Effects [1, 4]: NO

O=c1cc(N2CCOCC2)oc2c(-c3ccccc3)cccc12 [LY294002]
Effects [1, 3]: NO

CCCC[C@@H](C)/C=C(C)/C=C(\C)C(=O)NC1=C[C@@](O)(/C=C/C=C/C=C/C(=O)NC2=C(O)CCC2=O)[C@@H]2O[C@@H]2C1=O [Manumycin A]
Effects [1, 3]: NO

O=C1Nc2ccc(I)cc2/C1=C/c1cc(Br)c(O)c(Br)c1 [GW-5074]
Effects ([1]; 1 μg/ml in fish water from 10 hpf): Cytotoxic, non-specific effects
